Experimental data reported in ChEMBL document CHEMBL3797052 (Eur J Med Chem, 2016).

How the values were obtained:
[1] = Antiproliferative activity against human SKOV3 cells assessed as growth inhibition after 48 hrs by sulforhodamine B assay; assay type: functional; conditions: SK-OV-3, 48 h; for CC50: read-out: LC50 (the source's name)
[2] = Antiproliferative activity against human OVCAR4 cells assessed as growth inhibition after 48 hrs by sulforhodamine B assay; assay type: functional; conditions: OVCAR-4, 48 h; for CC50: read-out: LC50 (the source's name)
SK-MEL-28 = experiment: Antiproliferative activity against human SK-MEL-28 cells assessed as growth inhibition after 48 hrs by sulforhodamine B assay; assay type: functional; conditions: SK-MEL-28, 48 h; for CC50: read-out: LC50 (the source's name)
[3] = Antiproliferative activity against human SF295 cells assessed as growth inhibition after 48 hrs by sulforhodamine B assay; assay type: functional; conditions: SF-295, 48 h; for CC50: read-out: LC50 (the source's name)
SR [4] = experiment: Antiproliferative activity against human SR cells assessed as growth inhibition after 48 hrs by sulforhodamine B assay; assay type: functional
K562 = experiment: Antiproliferative activity against human K562 cells assessed as growth inhibition after 48 hrs by sulforhodamine B assay; assay type: functional; conditions: K562, 48 h; for CC50: read-out: LC50 (the source's name)
MCF7 [5] = experiment: Antiproliferative activity against human MCF7 cells assessed as growth inhibition after 48 hrs by sulforhodamine B assay; assay type: functional; conditions: MCF7, 48 h; for CC50: read-out: LC50 (the source's name)
[6] = Antiproliferative activity against human HL-60(TB) cells assessed as cell growth at 10^-7 M after 48 hrs by sulforhodamine B assay; assay type: functional; conditions: HL-60, 48 h, read-out: Activity
[7] = Antiproliferative activity against human RPMI8226 cells assessed as cell growth at 10^-7 M after 48 hrs by sulforhodamine B assay; assay type: functional; conditions: RPMI-8226, 48 h, read-out: Activity
NCI-H460 [8] = experiment: Antiproliferative activity against human NCI-H460 cells assessed as cell growth at 10^-7 M after 48 hrs by sulforhodamine B assay; assay type: functional; conditions: NCI-H460, 48 h, read-out: Activity
[9] = Antiproliferative activity against human HCC2998 cells assessed as cell growth at 10^-7 M after 48 hrs by sulforhodamine B assay; assay type: functional; conditions: HCC 2998, 48 h, read-out: Activity
[10] = Antiproliferative activity against human HCT116 cells assessed as cell growth at 10^-7 M after 48 hrs by sulforhodamine B assay; assay type: functional; conditions: HCT-116, 48 h, read-out: Activity
KM12 = experiment: Antiproliferative activity against human KM12 cells assessed as cell growth at 10^-7 M after 48 hrs by sulforhodamine B assay; assay type: functional; conditions: KM12, 48 h, read-out: Activity
U-251 = experiment: Antiproliferative activity against human U251 cells assessed as cell growth at 10^-7 M after 48 hrs by sulforhodamine B assay; assay type: functional; conditions: U-251, 48 h, read-out: Activity
[11] = Antiproliferative activity against human BT549 cells assessed as cell growth at 10^-4 M after 48 hrs by sulforhodamine B assay; assay type: functional; conditions: BT-549, 48 h, read-out: Activity
SK-MEL-2 = experiment: Antiproliferative activity against human SK-MEL-2 cells assessed as cell growth at 10^-7 M after 48 hrs by sulforhodamine B assay; assay type: functional; conditions: SK-MEL-2, 48 h, read-out: Activity
[12] = Antiproliferative activity against human DU145 cells assessed as cell growth at 10^-7 M after 48 hrs by sulforhodamine B assay; assay type: functional; conditions: DU-145, 48 h, read-out: Activity
CYP2C9 = CYP2C9 (Homo sapiens, UniProt P11712); experiment: Inhibition of recombinant human CYP2C9 assessed as remaining enzyme activity using CYP2C9 green as substrate at 10 uM after 5 mins in presence of NADP by fluorescence plate reader analysis; assay type: ADME; conditions: recombinant human CYP2C9, probe CYP2C9 green, read-out: Activity
CYP2C9, sequence (P11712 whole entry): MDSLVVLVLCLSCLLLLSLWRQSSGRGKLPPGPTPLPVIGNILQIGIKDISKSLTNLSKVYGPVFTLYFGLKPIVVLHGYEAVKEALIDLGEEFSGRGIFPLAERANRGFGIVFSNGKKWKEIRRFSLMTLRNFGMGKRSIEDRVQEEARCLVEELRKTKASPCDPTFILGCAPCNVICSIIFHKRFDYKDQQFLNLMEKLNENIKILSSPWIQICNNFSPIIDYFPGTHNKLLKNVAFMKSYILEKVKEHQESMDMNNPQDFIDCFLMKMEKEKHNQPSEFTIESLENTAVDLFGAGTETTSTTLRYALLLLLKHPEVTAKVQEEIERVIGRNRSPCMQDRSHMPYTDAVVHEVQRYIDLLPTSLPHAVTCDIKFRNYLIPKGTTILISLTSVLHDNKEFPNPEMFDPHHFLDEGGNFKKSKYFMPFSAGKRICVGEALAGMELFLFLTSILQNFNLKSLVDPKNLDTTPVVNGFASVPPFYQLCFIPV

CCRF-CEM = experiment: Antiproliferative activity against human CCRF-CEM cells assessed as cell growth at 10^-8 M after 48 hrs by sulforhodamine B assay; assay type: functional; conditions: read-out: Activity
[13] = Antiproliferative activity against human MOLT4 cells assessed as cell growth at 10^-8 M after 48 hrs by sulforhodamine B assay; assay type: functional; conditions: MOLT-4, 48 h, read-out: Activity
NCI-H522 = experiment: Antiproliferative activity against human NCI-H522 cells assessed as cell growth at 10^-8 M after 48 hrs by sulforhodamine B assay; assay type: functional; conditions: NCI-H522, 48 h, read-out: Activity
[14] = Antiproliferative activity against human HCT15 cells assessed as cell growth at 10^-8 M after 48 hrs by sulforhodamine B assay; assay type: functional; conditions: HCT-15, 48 h, read-out: Activity
NCI-H460 [15] = experiment: Antiproliferative activity against human NCI-H460 cells assessed as cell growth at 10^-6 M after 48 hrs by sulforhodamine B assay; assay type: functional; conditions: NCI-H460, 48 h, read-out: Activity
SR [16] = experiment: Antiproliferative activity against human SR cells assessed as cell growth at 10^-4 M after 48 hrs by sulforhodamine B assay; assay type: functional; conditions: read-out: Activity
[17] = Antiproliferative activity against human COLO205 cells assessed as cell growth at 10^-4 M after 48 hrs by sulforhodamine B assay; assay type: functional; conditions: COLO 205, 48 h, read-out: Activity
HT-29 = experiment: Antiproliferative activity against human HT-29 cells assessed as cell growth at 10^-4 M after 48 hrs by sulforhodamine B assay; assay type: functional; conditions: HT-29, 48 h, read-out: Activity
[18] = Antiproliferative activity against human LOXIMVI cells assessed as cell growth at 10^-4 M after 48 hrs by sulforhodamine B assay; assay type: functional; conditions: LOX IMVI, read-out: Activity
MDA-MB-435 = experiment: Antiproliferative activity against human MDA-MB-435 cells assessed as cell growth at 10^-8 M after 48 hrs by sulforhodamine B assay; assay type: functional; conditions: MDA-MB-435, 48 h, read-out: Activity
[19] = Antiproliferative activity against human OVCAR4 cells assessed as cell growth at 10^-8 M after 48 hrs by sulforhodamine B assay; assay type: functional; conditions: OVCAR-4, 48 h, read-out: Activity
[20] = Antiproliferative activity against human TK10 cells assessed as cell growth at 10^-8 M after 48 hrs by sulforhodamine B assay; assay type: functional; conditions: TK-10, 48 h, read-out: Activity
MCF7 [21] = experiment: Antiproliferative activity against human MCF7 cells assessed as cell growth at 10^-8 M after 48 hrs by sulforhodamine B assay; assay type: functional; conditions: MCF7, 48 h, read-out: Activity
[22] = Antiproliferative activity against human OVCAR8 cells assessed as cell growth at 10^-4 M after 48 hrs by sulforhodamine B assay; assay type: functional; conditions: OVCAR-8, 48 h, read-out: Activity
MDA-MB-231 = experiment: Antiproliferative activity against human MDA-MB-231 cells assessed as cell growth at 10^-4 M after 48 hrs by sulforhodamine B assay; assay type: functional; conditions: MDA-MB-231, 48 h, read-out: Activity

CNC(=O)c1cc(Oc2ccc(NC(=O)Nc3ccc(Cl)c(C(F)(F)F)c3)cc2)ccn1 [SORAFENIB]
GI50 [1]: 2.51 µM
TGI [1]: 12.6 µM
CC50 [1]: 63.1 µM
GI50 [2]: 3.16 µM
TGI [2]: 12.6 µM
CC50 [2]: 100 µM
GI50 (SK-MEL-28): 2.51 µM
TGI (SK-MEL-28): 7.94 µM
CC50 (SK-MEL-28): 31.6 µM
TGI [3]: 5.01 µM
CC50 [3]: 31.6 µM
GI50 (SR [4]): 3.16 µM
TGI (SR [4]): 100 µM
GI50 (K562): 3.16 µM
TGI (K562): 100 µM
CC50 (K562): 100 µM
GI50 (MCF7 [5]): 2.51 µM
TGI (MCF7 [5]): 7.94 µM
CC50 (MCF7 [5]): 50.1 µM

CNC(=O)c1cc(Oc2ccc3nc(NC(=O)c4cc(C(F)(F)F)cc(C(F)(F)F)c4)sc3c2)ccn1
GI50 [1]: 2.52 µM
TGI [1]: 7.98 µM
CC50 [1]: 73.7 µM
GI50 [2]: 3.12 µM
TGI [2]: 27.2 µM
CC50 [2]: > 100 µM
growth at 0.1 µM [6]: 97%
growth at 0.1 µM [7]: 98%
growth at 0.1 µM (NCI-H460 [8]): 105%
growth at 0.1 µM [9]: 108%
growth at 0.1 µM [10]: 104%
growth at 0.1 µM (KM12): 99%
growth at 0.1 µM (U-251): 97%
growth at 100 µM [11]: -48%
GI50 (SK-MEL-28): 3.76 µM
TGI (SK-MEL-28): 43.7 µM
CC50 (SK-MEL-28): > 100 µM
growth at 0.1 µM (SK-MEL-2): 97%
growth at 0.1 µM [12]: 105%
GI50 [3]: 2.56 µM
TGI [3]: 10.5 µM
CC50 [3]: 49.6 µM
GI50 (SR [4]): 3.37 µM
LC50 (SR [4]): > 100 µM
TGI (SR [4]): 15 µM
GI50 (K562): 3.53 µM
TGI (K562): > 100 µM
CC50 (K562): > 100 µM
GI50 (MCF7 [5]): 3.37 µM
TGI (MCF7 [5]): 18 µM
CC50 (MCF7 [5]): > 100 µM
activity at 5 min, 10 µM (CYP2C9): 32.7%
growth at 0.01 µM (CCRF-CEM): 99%
growth at 0.01 µM [13]: 86%
growth at 0.01 µM (NCI-H522): 90%
growth at 0.01 µM [14]: 104%
growth at 1 µM (NCI-H460 [15]): 101%
growth at 100 µM (SR [16]): -23%
growth at 100 µM [17]: -88%
growth at 100 µM (HT-29): -51%
growth at 100 µM [18]: -51%
growth at 0.01 µM (MDA-MB-435): 101%
growth at 0.01 µM [19]: 95%
growth at 0.01 µM [20]: 95%
growth at 0.01 µM (MCF7 [21]): 93%
growth at 100 µM [22]: -61%
growth at 100 µM (MDA-MB-231): -67%
